Blank lines part the entries; values can stand above or below the compound they belong to.
Key:
Type in all cases: in vivo
[1] = tested on: Avena fatua; test: Herbicidal action pre-emergence (greenhouse pot trial); conditions: application rate 320 g/ha
Method in brief: (§1)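 Efficacy (%) was estimated visually about 3 wk post-application by comparing treated pots with untreated controls, where 0% denotes plants resembling controls and 100% denotes dead plants. Dose was 320 g/ha or less.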

[2] = tested on: Echinochloa crus-galli; test: as above; conditions: application rate 320 g/ha, scored after about 3 weeks
Method in brief: as §1

[3] = tested on: Amaranthus retroflexus; test: as above; conditions: application rate 320 g/ha, scored after about 3 weeks
Method in brief: as §1

[4] = tested on: Hordeum murinum; test: as above; conditions: application rate 320 g/ha
Method in brief: as §1

[5] = tested on: Veronica persica; test: as above; conditions: application rate 320 g/ha
Method in brief: as §1

[6] = tested on: Alopecurus myosuroides; test: as above; conditions: application rate 320 g/ha, scored after about 3 weeks
Method in brief: as §1

[7] = tested on: Abutilon theophrasti; test: as above; conditions: application rate 320 g/ha, scored after about 3 weeks
Method in brief: as §1

[8] = tested on: Matricaria inodora; test: as above; conditions: application rate 320 g/ha, scored after about 3 weeks
Method in brief: as §1

[9] = tested on: Lolium rigidum; test: as above; conditions: application rate 320 g/ha
Method in brief: as §1

[10] = tested on: Setaria viridis; test: as above; conditions: application rate 320 g/ha, scored after about 3 weeks
Method in brief: as §1

[11] = tested on: Stellaria media; test: as above; conditions: application rate 320 g/ha, scored after about 3 weeks
Method in brief: as §1

[12] = tested on: Viola tricolor; test: as above; conditions: application rate 320 g/ha, scored after about 3 weeks
Method in brief: as §1

[13] = tested on: Pharbitis purpurea; test: as above; conditions: application rate 320 g/ha
Method in brief: as §1

[14] = tested on: Oryza sativa; test: Crop compatibility post-emergence (greenhouse pot trial); conditions: application rate 5 g/ha
Method in brief: (§2)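 Visual % rating about 3 weeks post-treatment against untreated plants (100% dead, 0% unaffected). Post-emergence spray of aqueous WP/EC preparations with 0.5% additive at 600 L/ha water, applied at one-leaf stage to greenhouse pot-grown crops in sandy loam.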

[15] = tested on: Glycine max; test: as above
Method in brief: as §2

[16] = tested on: Triticum aestivum; test: as above; conditions: application rate 20 g/ha
Method in brief: as §2

[17] = tested on: Zea mays; test: as above
Method in brief: as §2

[18] = tested on: Avena fatua; test: Herbicidal action post-emergence (greenhouse pot trial); conditions: scored visually after about 3 weeks vs untreated controls
Method in brief: (§3)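 One-leaf-stage seedlings, 2–3 weeks old, are treated on their green parts with an aqueous emulsion or suspension of the test compound (WP or EC, 0.5% additive) using 600 L/ha of water at up to 80 g/ha. About 3 weeks on, percent kill is estimated visually versus untreated plants.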

[19] = tested on: Echinochloa crus-galli; test: as above; conditions: application rate 80 g/ha, scored visually after about 3 weeks vs untreated controls
Method in brief: as §3

[20] = tested on: Polygonum convolvulus; test: as above; conditions: scored visually after about 3 weeks vs untreated controls
Method in brief: as §3

[21] = tested on: Amaranthus retroflexus; test: as above; conditions: scored visually after about 3 weeks vs untreated controls
Method in brief: as §3

[22] = tested on: Hordeum murinum; test: as above; conditions: scored visually after about 3 weeks vs untreated controls
Method in brief: as §3

[23] = tested on: Veronica persica; test: as above
Method in brief: as §3

[24] = tested on: Alopecurus myosuroides; test: as above; conditions: scored visually after about 3 weeks vs untreated controls
Method in brief: as §3

[25] = tested on: Abutilon theophrasti; test: as above; conditions: scored visually after about 3 weeks vs untreated controls
Method in brief: as §3

[26] = tested on: Matricaria inodora; test: as above; conditions: scored visually after about 3 weeks vs untreated controls
Method in brief: as §3

[27] = tested on: Lolium rigidum; test: as above; conditions: application rate 80 g/ha, scored visually after about 3 weeks vs untreated controls
Method in brief: as §3

[28] = tested on: Setaria viridis; test: as above; conditions: scored visually after about 3 weeks vs untreated controls
Method in brief: as §3

[29] = tested on: Stellaria media; test: as above; conditions: scored visually after about 3 weeks vs untreated controls
Method in brief: as §3

[30] = tested on: Viola tricolor; test: as above
Method in brief: as §3

[31] = tested on: Pharbitis purpurea; test: as above
Method in brief: as §3

[32] = tested on: Zea mays; test: Crop compatibility pre-emergence (greenhouse pot trial); conditions: application rate 80 g/ha, effect vs untreated controls
Method in brief: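 Crop plants were sown and covered with soil, then the soil surface was treated with formulated compound as an aqueous suspension or emulsion containing 0.5% additive, applied at a water rate equivalent to 600 L/ha. Damage was rated visually in percent relative to untreated pots after roughly three weeks in the greenhouse.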

[33] = tested on: Cyperus esculentus; test: Herbicidal action pre-emergence (greenhouse pot trial); conditions: application rate 320 g/ha
Method in brief: as §1

[34] = tested on: Digitaria sanguinalis; test: Herbicidal action post-emergence (greenhouse pot trial); conditions: application rate 20 g/ha
Method in brief: as §3

Oryza sativa (Efficacy in %) [14]: 10%
Glycine max (Efficacy in %) ([15]; application rate 25 g/ha): 10%
Triticum aestivum (Efficacy in %) [16]: 10%
Zea mays (Efficacy in %) ([17]; application rate 20 g/ha): 10%
Zea mays (Efficacy in %) [32]: 0%
Structure (SMILES): CON(C(=O)C(C)Sc1cc(-n2c(=O)cc(C(F)(F)F)n(C)c2=O)c(F)cc1Cl)C1CCOC1 (stereo not shown) [I.1-341]
Avena fatua (Efficacy in %) [1]: 90%
Echinochloa crus-galli (Efficacy in %) [2]: 100%
Amaranthus retroflexus (Efficacy in %) [3]: 100%
Hordeum murinum (Efficacy in %) [4]: 80%
Veronica persica (Efficacy in %) [5]: 100%
Alopecurus myosuroides (Efficacy in %) [6]: 90%
Abutilon theophrasti (Efficacy in %) [7]: 100%
Matricaria inodora (Efficacy in %) [8]: 100%
Lolium rigidum (Efficacy in %) [9]: 100%
Setaria viridis (Efficacy in %) [10]: 100%
Stellaria media (Efficacy in %) [11]: 100%
Viola tricolor (Efficacy in %) [12]: 100%
Pharbitis purpurea (Efficacy in %) [13]: 100%
Avena fatua (Efficacy in %) ([18]; application rate 80 g/ha): 90%
Echinochloa crus-galli (Efficacy in %) [19]: 100%
Polygonum convolvulus (Efficacy in %) ([20]; application rate 80 g/ha): 100%
Amaranthus retroflexus (Efficacy in %) ([21]; application rate 80 g/ha): 100%
Hordeum murinum (Efficacy in %) ([22]; application rate 80 g/ha): 90%
Veronica persica (Efficacy in %) ([23]; application rate 80 g/ha): 100%
Alopecurus myosuroides (Efficacy in %) ([24]; application rate 80 g/ha): 90%
Abutilon theophrasti (Efficacy in %) ([25]; application rate 80 g/ha): 100%
Matricaria inodora (Efficacy in %) ([26]; application rate 80 g/ha): 100%
Lolium rigidum (Efficacy in %) [27]: 100%
Setaria viridis (Efficacy in %) ([28]; application rate 80 g/ha): 100%
Stellaria media (Efficacy in %) ([29]; application rate 80 g/ha): 100%
Viola tricolor (Efficacy in %) ([30]; application rate 80 g/ha): 100%
Pharbitis purpurea (Efficacy in %) ([31]; application rate 80 g/ha): 100%

Oryza sativa (Efficacy in %) [14]: 10%
Glycine max (Efficacy in %) ([15]; application rate 5 g/ha): 20%
Zea mays (Efficacy in %) ([17]; application rate 5 g/ha): 20%
Structure (SMILES): COCCOC(=O)CSc1cc(-n2c(=O)cc(C(F)(F)F)n(C)c2=O)c(F)cc1Cl [I.8-1]
Avena fatua (Efficacy in %) [1]: 80%
Echinochloa crus-galli (Efficacy in %) [2]: 100%
Amaranthus retroflexus (Efficacy in %) [3]: 100%
Cyperus esculentus (Efficacy in %) [33]: 90%
Hordeum murinum (Efficacy in %) [4]: 90%
Veronica persica (Efficacy in %) [5]: 100%
Abutilon theophrasti (Efficacy in %) [7]: 100%
Matricaria inodora (Efficacy in %) [8]: 100%
Lolium rigidum (Efficacy in %) [9]: 90%
Setaria viridis (Efficacy in %) [10]: 100%
Stellaria media (Efficacy in %) [11]: 100%
Viola tricolor (Efficacy in %) [12]: 100%
Pharbitis purpurea (Efficacy in %) [13]: 100%
Echinochloa crus-galli (Efficacy in %) [19]: 100%
Polygonum convolvulus (Efficacy in %) ([20]; application rate 80 g/ha): 100%
Amaranthus retroflexus (Efficacy in %) ([21]; application rate 80 g/ha): 100%
Veronica persica (Efficacy in %) ([23]; application rate 80 g/ha): 100%
Abutilon theophrasti (Efficacy in %) ([25]; application rate 80 g/ha): 100%
Matricaria inodora (Efficacy in %) ([26]; application rate 80 g/ha): 100%
Setaria viridis (Efficacy in %) ([28]; application rate 80 g/ha): 100%
Stellaria media (Efficacy in %) ([29]; application rate 80 g/ha): 100%
Viola tricolor (Efficacy in %) ([30]; application rate 80 g/ha): 100%
Pharbitis purpurea (Efficacy in %) ([31]; application rate 80 g/ha): 100%

Oryza sativa (Efficacy in %) [14]: 0%
Zea mays (Efficacy in %) ([17]; application rate 5 g/ha): 20%
Structure (SMILES): CC(Sc1cc(-n2c(=O)cc(C(F)(F)F)n(C)c2=O)c(F)cc1Cl)C(=O)OC1COC1 (stereo not shown) [I.1-115]
Avena fatua (Efficacy in %) ([18]; application rate 20 g/ha): 80%
Polygonum convolvulus (Efficacy in %) ([20]; application rate 20 g/ha): 100%
Amaranthus retroflexus (Efficacy in %) ([21]; application rate 20 g/ha): 100%
Digitaria sanguinalis (Efficacy in %) [34]: 100%
Hordeum murinum (Efficacy in %) ([22]; application rate 20 g/ha): 100%
Veronica persica (Efficacy in %) ([23]; application rate 20 g/ha): 100%
Alopecurus myosuroides (Efficacy in %) ([24]; application rate 20 g/ha): 80%
Abutilon theophrasti (Efficacy in %) ([25]; application rate 20 g/ha): 100%
Matricaria inodora (Efficacy in %) ([26]; application rate 20 g/ha): 100%
Setaria viridis (Efficacy in %) ([28]; application rate 20 g/ha): 100%
Stellaria media (Efficacy in %) ([29]; application rate 20 g/ha): 100%
Viola tricolor (Efficacy in %) ([30]; application rate 20 g/ha): 100%
Pharbitis purpurea (Efficacy in %) ([31]; application rate 20 g/ha): 100%
